{
  "source": "patent US20100028889A1",
  "about": "“COMPANION DIAGNOSTIC ASSAYS FOR CANCER THERAPY” (ABBOTT LABORATORIES, priority 2006, published 2010)",
  "format_in_all_cases": "cell-based, human",
  "key": {"[1]": {"system": "leukemia/lymphoma cell lines", "assay": "categorisation of the leukemia/lymphoma cell line panel by EC50", "conditions": "EC50 less than or equal to 4.8 μM", "procedure": "(§1) Cells were treated at 10,000 or 50,000 cells per well for adherent or suspension cells, respectively, in 96-well microtiter plates in the presence of 10% human serum for 48 hours with or without ABT-263, in a humidified chamber with 5% CO2. ABT-263 was synthesized as previously described in Tse, C., Shoemaker, A. R., Adickes, J., et al., “ABT-263: a potent and orally bioavailable Bcl-2 family inhibitor,” Cancer Res 2008; 68: 3421-3428; and Oltersdorf, T., Elmore, S. W., Shoemaker, A. R., et al., “An inhibitor of Bcl-2 family proteins induces regression of solid tumours,” Nature 2005; 435: 677-681, and cell cytotoxicity EC50 values were assessed using CellTiter Glo (Promega, Madison Wis.).\no divide the training set cell lines into sensitive and resistant categories, a bivariate fit curve was generated for the ABT-263 EC50 versus rank and fitted with a smoothing spline (lambda=1), and the maximum increase in the slope was approximately 5 μM for both sets. […]\nDivision of cell lines into sensitive and resistant categories. […] To identify gene expression patterns that can predict sensitivity to ABT-263, as well as genes that might contribute to resistance to treatment, RNA expression profiles for a panel of SCLC cell lines were determined, as well as a panel of leukemia and lymphoma cell lines. […]"}, "[2]": {"system": "Rec-1", "assay": "cell cytotoxicity EC50, CellTiter Glo, Mantle Cell Lymphoma cell line, Rec-1 sub-clone batch listed second", "procedure": "(§2) The SCLC and leukemia/lymphoma cell lines listed below were obtained from the American Type Culture Collection (Manassas, Va.), Deutsche Sammlung von Mikroorganismen und Zellkulturen (DSMZ, Braunsweig, Germany), or were the generous gift from Dr. Louis Staudt (National Cancer Institute) and were cultured as described in Tse, C., Shoemaker, A. R., Adickes, J., et al., “ABT-263: a potent and orally bioavailable Bcl-2 family inhibitor,” Cancer Res 2008; 68: 3421-3428; and Tahir, S. K., Yang, X., Anderson, M. G., et al., “Influence of Bcl-2 family members on the cellular response of small-cell lung cancer cell lines to ABT-737,” Cancer Res 2007; 67: 1176-1183.\nas §1"}, "[3]": {"system": "NCI-H196", "assay": "cell cytotoxicity EC50, CellTiter Glo, SCLC cell line", "procedure": "as §2, §1"}, "[4]": {"system": "NCI-H209", "assay": "cell cytotoxicity EC50, CellTiter Glo, SCLC cell line", "procedure": "as §2, §1"}, "[5]": {"system": "NCI-H526", "assay": "cell cytotoxicity EC50, CellTiter Glo, SCLC cell line", "procedure": "as §2, §1"}, "[6]": {"system": "SHP-77", "assay": "cell cytotoxicity EC50, CellTiter Glo, SCLC cell line", "procedure": "as §2, §1"}, "[7]": {"system": "NCI-H187", "assay": "cell cytotoxicity EC50, CellTiter Glo, SCLC cell line", "procedure": "as §2, §1"}, "[8]": {"system": "SW 1271", "assay": "cell cytotoxicity EC50, CellTiter Glo, SCLC cell line", "procedure": "as §2, §1"}, "[9]": {"system": "DMS153", "assay": "cell cytotoxicity EC50, CellTiter Glo, SCLC cell line", "procedure": "as §2, §1"}, "[10]": {"system": "NCI-H146", "assay": "cell cytotoxicity EC50, CellTiter Glo, SCLC cell line", "procedure": "as §2, §1"}, "[11]": {"system": "NCI-H1436", "assay": "cell cytotoxicity EC50, CellTiter Glo, SCLC cell line", "procedure": "as §2, §1"}, "[12]": {"system": "NCI-H1105", "assay": "cell cytotoxicity EC50, CellTiter Glo, SCLC cell line", "procedure": "as §2, §1"}, "[13]": {"system": "NCI-H1963", "assay": "cell cytotoxicity EC50, CellTiter Glo, SCLC cell line", "procedure": "as §2, §1"}, "[14]": {"system": "NCI-H446", "assay": "cell cytotoxicity EC50, CellTiter Glo, SCLC cell line", "procedure": "as §2, §1"}, "[15]": {"system": "NCI-H847", "assay": "cell cytotoxicity EC50, CellTiter Glo, SCLC cell line", "procedure": "as §2, §1"}, "[16]": {"system": "DMS 114", "assay": "cell cytotoxicity EC50, CellTiter Glo, SCLC cell line", "procedure": "as §2, §1"}, "[17]": {"system": "NCI-H524", "assay": "cell cytotoxicity EC50, CellTiter Glo, SCLC cell line", "procedure": "as §2, §1"}, "[18]": {"system": "NCI-1417", "assay": "cell cytotoxicity EC50, CellTiter Glo, SCLC cell line", "procedure": "as §2, §1"}, "[19]": {"conditions": "10% human serum, 48 hours, read-out: EC50"}, "[20]": {"conditions": "Homo sapiens, read-out: Response Designation"}},
  "note": "Read-outs that look alike come from different tables or passages of the source.",
  "data": [
    {"smiles": "CC1(C)CCC(c2ccc(Cl)cc2)=C(CN2CCN(c3ccc(C(=O)NS(=O)(=O)c4ccc(N[C@H](CCN5CCOCC5)CSc5ccccc5)c(S(=O)(=O)C(F)(F)F)c4)cc3)CC2)C1", "note": "[ABT-263, N-(4-(4-((2-(4-chlorophenyl)-5,5-dimethyl-1-cyclohex-1-en-1-yl)methyl)piperazin-1-yl)benzoyl)-4-(((1R)-3-(morpholin-4-yl)-1-((phenylsulfanyl)methyl)propyl)amino)-3-((trifluoromethyl)sulfonyl)benzenesulfonamide]", "values": [
      {"measurement": "leukemia/lymphoma cell lines categorized as being sensitive", "setting": "[1]", "value": "25 out of 31"},
      {"measurement": "EC50", "setting": "[2]; Homo sapiens, Rec1, read-out: Response Designation", "value": "≤ 4.8", "unit": "µM"},
      {"measurement": "EC50", "setting": "[2]; Rec1, 10% human serum, 48 hours, read-out: EC50", "value": 0.698, "unit": "µM"},
      {"measurement": "EC50", "setting": "[3]; [19]", "value": 38.6, "unit": "µM"},
      {"measurement": "EC50", "setting": "[3]; [20]", "value": "> 4.1", "unit": "µM"},
      {"measurement": "EC50", "setting": "[4]; [19]", "value": 1.15, "unit": "µM"},
      {"measurement": "EC50", "setting": "[4]; [20]", "value": "≤ 4.1", "unit": "µM"},
      {"measurement": "EC50", "setting": "[5]; [19]", "value": 12.6, "unit": "µM"},
      {"measurement": "EC50", "setting": "[5]; [20]", "value": "> 4.1", "unit": "µM"},
      {"measurement": "EC50", "setting": "[6]; Homo sapiens, SHP77, read-out: Response Designation", "value": "≤ 4.1", "unit": "µM"},
      {"measurement": "EC50", "setting": "[6]; SHP77, 10% human serum, 48 hours, read-out: EC50", "value": 3.9, "unit": "µM"},
      {"measurement": "EC50", "setting": "[7]; [19]", "value": 0.21, "unit": "µM"},
      {"measurement": "EC50", "setting": "[7]; [20]", "value": "≤ 4.1", "unit": "µM"},
      {"measurement": "EC50", "setting": "[8]; Homo sapiens, SW1271, read-out: Response Designation", "value": "> 4.1", "unit": "µM"},
      {"measurement": "EC50", "setting": "[8]; SW1271, 10% human serum, 48 hours, read-out: EC50", "value": 33.9, "unit": "µM"},
      {"measurement": "EC50", "setting": "[9]; DMS-153, 10% human serum, 48 hours, read-out: EC50", "value": 11, "unit": "µM"},
      {"measurement": "EC50", "setting": "[9]; Homo sapiens, DMS-153, read-out: Response Designation", "value": "> 4.1", "unit": "µM"},
      {"measurement": "EC50", "setting": "[10]; [19]", "value": 0.11, "unit": "µM"},
      {"measurement": "EC50", "setting": "[10]; [20]", "value": "≤ 4.1", "unit": "µM"},
      {"measurement": "EC50", "setting": "[11]; [19]", "value": 1, "unit": "µM"},
      {"measurement": "EC50", "setting": "[11]; [20]", "value": "≤ 4.1", "unit": "µM"},
      {"measurement": "EC50", "setting": "[12]; [19]", "value": 0.7, "unit": "µM"},
      {"measurement": "EC50", "setting": "[12]; [20]", "value": "≤ 4.1", "unit": "µM"},
      {"measurement": "EC50", "setting": "[13]; [19]", "value": 0.18, "unit": "µM"},
      {"measurement": "EC50", "setting": "[13]; [20]", "value": "≤ 4.1", "unit": "µM"},
      {"measurement": "EC50", "setting": "[14]; [19]", "value": 4.1, "unit": "µM"},
      {"measurement": "EC50", "setting": "[14]; [20]", "value": "≤ 4.1", "unit": "µM"},
      {"measurement": "EC50", "setting": "[15]; [19]", "value": 0.06, "unit": "µM"},
      {"measurement": "EC50", "setting": "[15]; [20]", "value": "≤ 4.1", "unit": "µM"},
      {"measurement": "EC50", "setting": "[16]; [19]", "value": 33.9, "unit": "µM"},
      {"measurement": "EC50", "setting": "[16]; [20]", "value": "> 4.1", "unit": "µM"},
      {"measurement": "EC50", "setting": "[17]; [19]", "value": 0.08, "unit": "µM"},
      {"measurement": "EC50", "setting": "[17]; [20]", "value": "≤ 4.1", "unit": "µM"},
      {"measurement": "EC50", "setting": "[18]; [19]", "value": 0.36, "unit": "µM"},
      {"measurement": "EC50", "setting": "[18]; [20]", "value": "≤ 4.1", "unit": "µM"}
    ]}
  ]
}
